Here are results for 19 compounds from patent US20100292205A1, “Pyrimidone Compounds As GSK-3 Inhibitors” (PFIZER INC., priority 2006, published 2010).

pIC50: −log10 of the molar value.

The target in the first test is T1, Recombinant human GSK3β (Homo sapiens, UniProt P49841).
T1 construct: His-tag; made in house; host or cells: Sf9 insect cells / baculovirus
T1 sequence (P49841 whole entry): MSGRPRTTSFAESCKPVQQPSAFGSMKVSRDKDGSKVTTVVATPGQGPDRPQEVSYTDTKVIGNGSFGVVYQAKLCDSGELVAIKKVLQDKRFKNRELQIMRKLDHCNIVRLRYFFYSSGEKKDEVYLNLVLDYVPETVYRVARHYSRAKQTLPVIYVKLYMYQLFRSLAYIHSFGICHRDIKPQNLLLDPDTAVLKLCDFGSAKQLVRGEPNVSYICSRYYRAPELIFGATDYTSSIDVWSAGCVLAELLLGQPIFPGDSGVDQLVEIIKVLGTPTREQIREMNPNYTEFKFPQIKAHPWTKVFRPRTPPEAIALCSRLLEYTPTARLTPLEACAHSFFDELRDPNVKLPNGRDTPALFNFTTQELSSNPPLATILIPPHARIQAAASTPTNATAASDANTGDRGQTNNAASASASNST
The test is described as follows: GSK-3β (Glycogen Synthase Kinase) cell free enzyme assay. The format is biochemical. The note with it: 1 μM; Examples 236-262; read-out: Percent inhibition at 1 μM. In short, it runs like this:
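Recombinant human GSK3β, expressed in SF9/baculovirus cells and His-tag purified on Ni-NTA Superflow, was preincubated with test agent for 30 minutes at room temperature. Substrate mix was then added to start the reaction in 8 mM MOPS (pH 7.0), 10 mM magnesium acetate, 0.2 mM EDTA, 1 mM DTT, 2 uM cold ATP, 0.025 uCi/well [33P]ATP (120 uL) and 1.0 uM biotinylated peptide. Reactions ran at RT for 60 min.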
Consider `CCN(c1nc(-c2ccncc2)cc(=O)n1C)C1CCN(Cc2ccccc2)C1` (stereo not shown) [Example 257, 2-[(1-Benzylpyrrolidin-3-yl)(ethyl)amino]-3-methyl-6-pyridin-4-ylpyrimidin-4(3H)-one], for which the inhibition (in general, the drop in the measured response relative to a control, in per cent) at 1 µM turned out to be 71%.
On the same count and under the same terms, the value for `CN(c1nc(-c2ccncc2)cc(=O)n1C)[C@@H]1CC[C@H]2N(Cc3ccccc3)CC[C@@]2(C)C1` [Example 258, 2-{[(3a,S5,R7,aR)-1-Benzyl-3a-methyloctahydro-1H-indol-5-yl](methyl)amino}-3-methyl-6-pyridin-4-ylpyrimidin-4(3H)-one] was 43%; that for `CCN(c1nc(-c2ccncc2)cc(=O)n1C)C1CCCN(Cc2ccccc2)CC1` (stereo not shown) [Example 259, 2-[(1-Benzylazepan-4-yl)(ethyl)amino]-3-methyl-6-pyridin-4-ylpyrimidin-4(3H)-one] was 83%; that for `CCN(c1nc(-c2ccncc2)cc(=O)n1C)C1CCN(Cc2ccccc2)CC1` [Example 260, 2-[(1-Benzylpiperidin-4-yl)(ethyl)amino]-3′-methyl-6-pyridin-4-ylpyrimidin-4(3H)-one] was 44%.
Turning to `Cn1c(NCC2CCN(Cc3ccccc3)C2)nc(-c2ccncc2)cc1=O` (stereo not shown) [Example 261, 2-{[(1-Benzylpyrrolidin-3-yl)methyl]amino}-3-methyl-6-pyridin-4-ylpyrimidin-4(3H)-one], the inhibition at 1 µM came to 70%.
On to `Cn1c(N[C@@H]2CC[C@@H](NCc3ccccc3)C2)nc(-c2ccncc2)cc1=O` [Example 262, 2-{[(1R,3R)-3-(Benzylamino)cyclopen-tyl]amino}-3-methyl-6-pyridin-4-ylpyrimidin-4(3H)-one], for which the inhibition at 1 µM is 48%.

The same test, now with this note: cell free enzyme assay; Examples 265-291.
In the case of `CCc1cn2nc(N3C[C@@H]4[C@H](C3)[C@H]4N(C)c3nc(-c4ccncc4F)cc(=O)n3C)ccc2n1` [Example 265, 2-{[(1R,5S,6s)-3-(2-Ethylimidazo[1,2-b]pyridazin-6-yl)-3-azabicyclo[3.1.0]hex-6-yl](methyl)amino}-6-(3-fluoropyridin-4-yl)-3-methylpyrimidin-4(3H)-one], the pIC50 – broadly, the negative decadic logarithm of the IC50, by convention in mol/L – was 7.28.
Same read-out and setting: the value for `CN(c1nc(-c2ccncc2F)cc(=O)n1C)[C@H]1[C@@H]2CN(c3nc4cc(F)ccc4n3C)C[C@@H]21` [Example 266, 2-{[(1R,5S,6s)-3-(5-Fluoro-1-methyl-1H-benzimidazol-2-yl)-3-azabicyclo[3.1.0]hex-6-yl](methyl)amino}-6-(3-fluoropyridin-4-yl)-3-methylpyrimidin-4(3H)-one] was 7.78; that for `COc1ccc2oc(N3C[C@@H]4[C@H](C3)[C@H]4N(C)c3nc(-c4ccncc4F)cc(=O)n3C)nc2c1` [Example 267, 6-(3-Fluoropyridin-4-yl)-2-{[(1R,5S,6s)-3-(5-methoxy-1,3-benzoxazol-2-yl)-3-azabicyclo[3.1.0]hex-6-yl](methyl)amino}-3-methylpyrimidin-4(3H)-one] was 7.85; that for `CN(c1nc(-c2ccncc2F)cc(=O)n1C)[C@H]1[C@@H]2CN(c3nc(C(F)(F)F)c(C(=O)OCc4ccccc4)s3)C[C@@H]21` [Example 268, Benzyl 2-[(1R,5S,6s)-6-{[4-(3-fluoropyridin-4-yl)-1-methyl-6-oxo-1,6-dihydropyrimidin-2-yl](methyl)amino}-3-azabicyclo[3.1.0]hex-3-yl]-4-(trifluoromethyl)-1,3-thiazole-5-carboxylate] was 6.90.
For the compound `CN(c1nc(-c2ccncc2F)cc(=O)n1C)[C@H]1[C@@H]2CN(c3nc4ccc(F)cc4n3C)C[C@@H]21` [Example 269, 2-{[(1R,5S,6s)-3-(6-Fluoro-1-methyl-1H-benzimidazol-2-yl)-3-azabicyclo[3.1.0]hex-6-yl](methyl)amino}-6-(3-fluoropyridin-4-yl)-3-methylpyrimidin-4(3H)-one], the pIC50 was 7.73.
As for `CN(c1nc(-c2ccncc2F)cc(=O)n1C)[C@H]1[C@@H]2CN(c3nc4ccccc4o3)C[C@@H]21` [Example 270, 2-{[(1R,5S,6s)-3-[1,3-Benzoxazol-2-yl)-3-azabicyclo[3.1.0]hex-6-yl](methyl)amino}-6-(3-fluoropyridin-4-yl)-3-methylpyrimidin-4(3H)-one], the pIC50 is 7.61.
For the compound `CN(c1nc(-c2ccncc2F)cc(=O)n1C)[C@H]1[C@@H]2CN(c3nnnn3Cc3ccc(C#N)cc3)C[C@@H]21` [Example 271, 4-({5-[(1R,5S,6s)-6-{[4-(3-Fluoropyridin-4-yl)-1-methyl-6-oxo-1,6-dihydropyrimidin-2-yl](methyl)amino}-3-azabicyclo[3.1.0]hex-3-yl]-1H-tetrazol-1-yl}methyl)benzonitrile], the pIC50 was 8.06.
In the case of `CN(c1nc(-c2ccncc2F)cc(=O)n1C)[C@H]1[C@@H]2CN(c3nc4ccccc4[nH]3)C[C@@H]21` [Example 272, 2-{[(1R,5S,6s)-3-(1H-Benzimidazol-2-yl)-3-azabicyclo[3.1.0]hex-6-yl](methyl)amino}-6-(3-fluoropyridin-4-yl)-3-methylpyrimidin-4(3H)-one], the pIC50 was 7.12.
With `CCOCCn1nnnc1N1C[C@@H]2[C@H](C1)[C@H]2N(C)c1nc(-c2ccncc2F)cc(=O)n1C` [Example 273, 2-[{(1R,5S,6s)-3-[1-(2-Ethoxyethyl)-1H-tetrazol-5-yl]-3-azabicyclo[3.1.0]hex-6-yl}(methyl)amino]-6-(3-fluoropyridin-4-yl)-3-methylpyrimidin-4(3H)-one], the pIC50 is 7.54.
Regarding `Cc1nnc2c(N3C[C@@H]4[C@H](C3)[C@H]4N(C)c3nc(-c4ccncc4F)cc(=O)n3C)nc(-c3ccccc3)cn12` [Example 274, 6-(3-Fluoropyridin-4-yl)-3-methyl-2-{methyl[(1R,5S,6s)-3-(3-methyl-6-phenyl[1,2,4]triazolo[4,3-a]pyrazin-8-yl)-3-azabicyclo[3.1.0]hex-6-yl]amino}pyrimidin-4(3H)-one], the pIC50 is 6.63.
Regarding `CN(c1nc(-c2ccncc2F)cc(=O)n1C)[C@H]1[C@@H]2CN(c3nnnn3-c3ccccc3F)C[C@@H]21` [Example 275, 2-[{(1R,5S,6s)-3-[1-(2-Fluorophenyl)-1H-tetrazol-5-yl]-3-azabicyclo[3.1.0]hex-6-yl}(methyl)amino]-6-(3-fluoropyridin-4-yl)-3-methylpyrimidin-4(3H)-one], the pIC50 was 8.95.
Take `CCOC(=O)c1cccc(-n2nnnc2N2C[C@@H]3[C@H](C2)[C@H]3N(C)c2nc(-c3ccncc3F)cc(=O)n2C)c1` [Example 276, Ethyl 3-{5-[(1R,5S,6s)-6-{[4-(3-fluoropyridin-4-yl)-1-methyl-6-oxo-1,6-dihydropyrimidin-2-yl](methyl)amino}-3-azabicyclo[3.1.0]hex-3-yl]-1H-tetrazol-1-yl}benzoate]: the pIC50 was 8.21.
For the compound `Cc1nn(C2CCCC2)c2nc(N3C[C@@H]4[C@H](C3)[C@H]4N(C)c3nc(-c4ccncc4F)cc(=O)n3C)[nH]c(=O)c12` [Example 277, 1-Cyclopentyl-6-[(1R,5S,6s)-6-{[4-(3-fluoropyridin-4-yl)-1-methyl-6-oxo-1,6-dihydropyrimidin-2-yl](methyl)amino}-3-azabicyclo[3.1.0]hex-3-yl]-3-methyl-1,5-dihydro-4H-pyrazolo[3,4-d]pyrimidin-4-one], the pIC50 is 7.29.
